Assay results: patent publication US7875604B2, “Compounds that inhibit HIV particle formation” (University of Virginia Patent Foundation, priority 2004, dated 2011)
Read-outs that look alike come from different tables or passages of the source.

Assays:
[1] = HIV-1 Rev assay toxicity/non-specificity readout (Firefly Luciferase); type: cell-based; conditions: human
Protocol: The eight compounds listed in Table 1 were also tested in an assay that measured HIV-1 Rev function. The HIV-1 Rev assay is based upon the use of a reporter for detecting whether drug candidates are capable of inhibiting the function of the viral Rev protein. The reporter used for these assays is the Renilla Luciferase protein, which is an enzyme that produces detectable light when mixed with certain chemicals. For this assay, a cell line has been developed in which the production of the reporter by the cells requires the function of HIV-1 Rev. Therefore, if a drug candidate inhibits the function of Rev, it decreases the amount of the reporter produced by the cells. By using Renilla Luciferase as the reporter, the inhibition of Rev is easily detected as a decrease in the amount of light produced by the cells when mixed with the appropriate chemicals. Furthermore, the cell line for this assay has been engineered to use a second similar reporter (Firefly Luciferase) that detects whether drug candidates are toxic.
Compounds were tested in the Rev assay using the maximum high-test concentration possible based on the supplied stocks as shown in Table 3. Compounds were prepared at a 2× high-test concentration by combining drug stock with tissue culture media at a ratio of 5 μL of drug to 995 μL of media. This 2× high-test sample was subsequently serially diluted in tissue culture media using 1/2 log dilutions. This series of 2× concentrated drug was subsequently diluted 1:1 by combining with an equal volume of cells in media in the 96-well plates used for the assay. Representative data for two of the compounds is also depicted in FIG. 5.
Leptomycin B is a control compound known to inhibit Rev function.

HIV-1 NL4-3 = assay: Anti-HIV efficacy in fresh human PBMCs, reverse transcriptase readout, HIV-1 NL4-3; type: cell-based; conditions: for TI (TC50/IC50): HIV-1 NL4-3, PBMCs; for IC50: HIV-1 NL4-3, fresh human PBMCs, seven days, RT activity
Protocol: Compounds were evaluated for their ability to inhibit HIV replication in fresh human PBMCs. The assay was performed as follows.
Fresh human PBMCs, seronegative for HIV and HBV, were isolated from screened donors (Interstate Blood Bank, Inc. Memphis, Tenn.). Cells were pelleted/washed 2-3 times by low speed centrifugation and re-suspension in PBS to remove contaminating platelets. The Leukophoresed blood was then diluted 1:1 with Dulbecco's Phosphate Buffered Saline (DPBS) and layered over 14 mL of Lymphocyte Separation Medium (LSM; Cellgro® by Mediatech, Inc.; density 1.078+/−0.002 g/ml; Cat.#85-072-CL) in a 50 mL centrifuge tube and then centrifuged for 30 minutes at 600×g. Banded PBMCs were gently aspirated from the resulting interface and subsequently washed 2× with PBS by low speed centrifugation. After the final wash, cells were enumerated by trypan blue exclusion and re-suspended at 1×10^7 cells/mL in RPMI 1640 supplemented with 15% Fetal Bovine Serum (FBS), and 2 mM L-glutamine, 4 μg/mL Phytohemagglutinin (PHA-P, Sigma). The cells were allowed to incubate for 48-72 hours at 37° C. After incubation, PBMCs were centrifuged and resuspended in RPMI 1640 with 15% FBS, 2 mM L-glutamine, 100 U/mL penicillin, 100 μg/mL streptomycin, 10 μg/mL gentamycin, and 20 U/mL recombinant human IL-2 (R&D Systems, Inc). IL-2 is included in the culture medium to maintain the cell division initiated by the PHA mitogenic stimulation. PBMCs were maintained in this medium at a concentration of 1-2×10^6 cells/mL with biweekly medium changes until used in the assay protocol. Cells were kept in culture for a maximum of two weeks before being deemed too old for use in assays and discarded. Monocytes were depleted from the culture as the result of adherence to the tissue culture flask.
For the standard PBMC assay, PHA-P stimulated cells from at least two normal donors were pooled (mixed together), diluted in fresh medium to a final concentration of 1×10^6 cells/mL, and plated in the interior wells of a 96 well round bottom microplate at 50 μL/well (5×10^4 cells/well) in a standard format developed by the Infectious Disease Research department of Southern Research Institute. Pooling (mixing) of mononuclear cells from more than one donor is used to minimize the variability observed between individual donors, which results from quantitative and qualitative differences in HIV infection and overall response to the PHA and IL-2 of primary lymphocyte populations. Each plate contains virus/cell control wells (cells plus virus), experimental wells (drug plus cells plus virus) and compound control wells (drug plus media without cells, necessary for MTS monitoring of cytotoxicity). Since HIV-1 is not cytopathic to PBMCs, this allows the use of the same assay plate for both antiviral activity and cytotoxicity measurements. Test drug dilutions were prepared at a 2× concentration in microtiter tubes and 100 μL of each concentration was placed in appropriate wells using the standard format. 50 μL of a predetermined dilution of virus stock was placed in each test well (final MOI≅0.1). The PBMC cultures were maintained for seven days following infection at 37° C., 5% CO2. After this period, cell-free supernatant samples were collected for analysis of reverse transcriptase activity as a measure of virus release. Following removal of supernatant samples, compound cytotoxicity was measured by addition of MTS to the plates for determination of cell viability. Wells were also examined microscopically and any abnormalities were noted.
A microtiter plate-based reverse transcriptase (RT) reaction was utilized (Buckheit et al., AIDS Research and Human Retroviruses 7:295-302, 1991). Tritiated thymidine triphosphate (3H-TTP, 80 Ci/mmol, NEN) was received in 1:1 dH2O:Ethanol at 1 mCi/mL. […]

[2] = Human immunodeficiency virus 1, NL43, PBMC, 168 h

Row | Compound | CC50 at 24 hours [1] | TI (TC50/IC50) (HIV-1 NL4-3) | IC50 (HIV-1 NL4-3; [2]) | IC50 (HIV-1 NL4-3) | CC50 at 24 hours ([1]; 50% inhibition of Firefly Luciferase (toxicity/non-specificity), 24 hours, read-out: TC50)
1 | Fc1ccc(Nc2ncnc3ccccc23)cc1Cl [Compound 109020, N-(3-chloro-4-fluorophenyl)-N-(4-quinazolinyl)amine] | > 40.8 µM | >1.55 | 26.4 µM |  | 
2 | COc1ccc2cc3c(N)n[nH]c3nc2c1 [Compound 89246, 7-methoxy-1H-pyrazolo[3,4-b]quinolin-3-ylamine] | 8.41 µM | 14.90 | 1.47 µM |  | 
3 | CS(=O)(=O)c1ncc(-c2ccc(Br)cc2)cn1 [Compound 107129, -(4-bromophenyl)-2-(methylsulfonyl)pyrimidine] | 30.9 µM | 1.95 | 2.12 µM |  | 
4 | 2-chloro-N-(4-methylphenyl)-4-(trifluoromethyl)-1,3-thazole-5-carboxamide [Compound 91161] |  | 5.92 |  | 2.28 µM | 
5 | COc1ccc2nc(C(F)(F)F)c(C#N)c(N)c2c1 [Compound 104366, 4-amino-6-methoxy-2-(trifluoromethyl)-3-quinolinecarbonitrile] |  | 23.91 | 0.92 µM |  | 17.2 µM
6 | COc1cccc(NC(=O)c2cc(Cl)nnc2Cl)c1 [Compound 107740, 3,6-dichloro-N-(3-methoxyphenyl)-4-pyridazinecarboxamide] | 18.5 µM | 8.94 | 1.61 µM |  | 
7 | CCc1c(C)nc2sc(C(N)=O)c(N)c2c1C [Compound 103833, 3-amino-5-ethyl-4,6-dimethylthieno[2,3-b]pyridine-2-carboxamide] | > 37.6 µM | >16.94 | 2.22 µM |  | 
8 | CCc1c(C(=O)Nc2ccccc2)c(C)nc2sc(C(N)=O)c(N)c12 [Compound 75168, 3-amino-4-ethyl-6-methyl-N˜5˜-phenylthieno[2,3-b]pyridine-2,5-dicarboxamide] | 7.91 µM | >1.59 | 16.9 µM |  | 
